In series [1] the test system is metal-sensitized C57BL/6 mice. The series is described as follows: In vivo delayed type hypersensitivity (DTH) to orthopedic implant metal(s): paw inflammation by digital caliber. As to conditions: day 14, no treatment, p<0.0001 vs vehicle group. Here is the method:
DTH responses comprise two phases: (1) sensitization and (2) effector phase. […] Ashrin et al., J. Immunol. 192(9):4025-4031 (2014); Sato et al., Clin. Exp. Allergy 37(5):743-751 (2007). […] (2) Effector phase to implant metal(s): Re-exposure to the metal allergen leads to DTH reaction during the effector phase. Therefore, on day 12, a 50 μL mixture of either sterile 1×PBS (control group) or NiCl2 (metal-sensitized group) with an equivalent volume of CFA was injected subcutaneously on top of the right paw. DTH was determined 48 h post re-exposure to metal allergen (day 14) by measuring changes in paw inflammation using a digital caliber (blinded assessment) and the induced difference was recorded. Each group consisted of 3-5 mice and experiments were performed at least three independent times.
Anti-mouse IL-1R1: A set of metal-sensitized C57BL/6 female mice received local paw administration on day 12 with 200 μg of anti-mouse IL-1R1 (for local in vivo blocking of IL-1R during the effector phase of metal-DTH responses) (clone JAMA-147; BioLegend, San Diego, Calif.) in concert with NiCl2 and CFA. Rogers et al., Proc. Natl. Acad. Sci. USA 89(3):1011-1015 (1992); Rogers et al., J. Immunol. 153(5):2093-2101 (1994). […]

For series [2], the system named is IL-17A/F. Nature of the series: Sandwich ELISA for mouse IL-17A/F in supernatants of metal-challenged CD4+ T cells. The series is classed as cell-based. As to conditions: CD4+ T cells from metal-sensitized Caspase-1−/− mice. How it is done: (§1) In addition to determination of paw swelling after recall with NiCl2, proliferation in vitro of lymphocytes was measured. Spleens were obtained aseptically 48 h after challenge and splenic effector CD4+ T cells were isolated using negative selection kit following manufacturer's protocol (EasySep Mouse CD4+ T cell isolation kit; 2.5×10^5 cells/per well in 96 well flat bottom plates). Splenic CD4+ T cells were co-incubated with syngeneic mitomycin-C treated naïve splenic (2.5×10^5 cells/per well) antigen-presenting cells (APCs) with or without 0.0001 mM or 0.001 mM of soluble metal ions NiCl2 or CoCl2, and 0.01 mg/mL phytohemagglutinin (PHA) as a positive control, in RPMI 1640 media containing 10% fetal bovine serum (FBS; Hyclone Laboratories, Inc.) at 37° C. and […] for 4 days. Syngeneic naïve spleen APCs were incubated at 5×10^6 cells/mL with 25 μg/mL of mitomycin-C for 30 minutes to inactivate proliferation. At day 3 of cell culture, ^3H-thymidine was added. At day 4, T-cell proliferation was assessed via ^3H-thymidine incorporation that was determined using a beta scintillation counter.
(§2) Sandwich ELISAs for mouse IL-17A/F and IFN-γ (R&D Systems Inc., Minneapolis, Minn.) were used to detect cytokine production in both non-sensitized and metal-sensitized female mouse spleens and isolated CD4+ T-cells that were harvested 48 h post paw re-challenge to metal allergen (day 14). […]

Series [3] deals with IFN-γ. The series is described as follows: Sandwich ELISA for mouse IFN-γ in supernatants of metal-challenged CD4+ T cells. The series is classed as cell-based. To be noted: CD4+ T cells from metal-sensitized Caspase-1−/− mice. How it is done: as §1, §2
Series [4] relates to human peripheral blood mononuclear cells. Nature of the series: Metal-LTT of human lymphocytes (PBMCs): proliferation by 3H-thymidine incorporation with inflammasome or IL-17A inhibitors. The format is cell-based. To be noted: for lymphocyte proliferation, mean response to Ni: Ni alone; for lymphocyte proliferation in response to Ni in the presence of inhibitor / lymphocyte proliferation to Ni combined with inhibitor compared to media control: metal-reactive individuals' lymphocytes, 6 days; for lymphocyte proliferation in response to Ni in the presence of inhibitor: compared with Ni challenge without inhibitor; for lymphocyte proliferation to Ni combined with inhibitor compared to media control: versus media challenge. Here is the method: De-identified human peripheral blood mononuclear cells were isolated from 30 mL of peripheral blood using density gradient separation (Ficoll-isopaque, Pharmacia, Piscataway, N.J.). Ficoll gradient separated mononuclear cells are generally comprised of 85-95% lymphocytes with 5-13% monocytes and <0.1% dendritic cells with limited contamination (i.e., <5% erythrocytes and <3% granulocytes). Collected PBMCs (white buffy coat) were washed in sterile 1×PBS and resuspended in RPMI-1640 medium with 10% autologous serum and cultured with either no metal (plain media) as a negative control, PHA as a positive control, or with soluble nickel (NiCl2) or cobalt (CoCl2) at 37° C. and […] for 6 days. At day 5 of cell culture, ^3H-thymidine was added. At day 6, T-cell proliferation was assessed via ^3H-thymidine incorporation that was determined using a beta scintillation counter.
(§3) Isolated human PBMCs were co-incubated in vitro with either MCC950, a NLRP3 inflammasome inhibitor (InvivoGen), Caspase-1 inhibitor (Caspase-1/ICE inhibitor Z-WEHD-FMK) or recombinant human IL-1Ra (R&D Systems. Inc., Minneapolis, Minn.) for metal-LTT assay or cytokine analysis according to manufacturer's protocol and working concentration. Caicedo et al., J. Biomed. Mater. Res. A 93(4):1312-1321 (2010).
(§4) Isolated human PBMCs were co-incubated in vitro with IL-17A monoclonal antibody (eBio64CAP17; ThermoFisher Scientific) for neutralization of IL-17A bioactivity for metal-lymphocyte transformation test assay or cytokine analysis according to the manufacturer's protocol and concentration.

Series [5] concerns IL-17A/F. The series is described as follows: Sandwich ELISA for human IL-17A/F in supernatants of metal-challenged PBMCs. To be noted: metal-reactive individuals' lymphocytes; supernatants harvested on day 6. The format is cell-based. How it is done: as §3, §4
(§5) Sandwich ELISAs for mouse IL-17A/F and IFN-γ (R&D Systems Inc., Minneapolis, Minn.) were used to detect cytokine production in both non-sensitized and metal-sensitized female mouse spleens and isolated CD4+ T-cells that were harvested 48 h post paw re-challenge to metal allergen (day 14). Supernatants from control and metal-challenged murine cells were collected after 4 days. […] All samples for ELISA were performed in triplicate in 96 well plates and were stored at −80° C. until analysis, following manufacturer's protocol.

For series [6], the system named is IFN-γ. The series is described as follows: Sandwich ELISA for human IFN-γ in supernatants of metal-challenged PBMCs. The format is cell-based. As to conditions: metal-reactive individuals' lymphocytes; supernatants harvested on day 6. Here is the method: as §3, §4, §5

*: point of attachment. Cbz = O=C(OCc1ccccc1)*; CH2F = FC*

Regarding `[Cl][Ni][Cl]` [Ni, Nickel (II) chloride], the “mean paw inflammation upon challenge with Ni” value in series [1] worked out at 6.195 mm. Besides, the “IL-17A/F mean secretion in response to Ni” value in the series on IL-17A/F [2] is 131.5 pg/mL. Further, in the series with IFN-γ [3], the “IFN-γ mean secretion in response to Ni” value turned out to be 956.6 pg/mL. The “lymphocyte proliferation, mean response to Ni” value in series [4] (other groups of individuals (FIGS. 9A, 9B, 10A)) is “approximately 4,000 cpm”; in series [4] (subset of individuals tested with anti-IL-17A (n=11)), 10,600 cpm.
For “Cbz-WEHD-CH2F [Caspase-1 inhibitor, reference compound]”, in series [4], the “lymphocyte proliferation in response to Ni in the presence of inhibitor” value (“lymphocyte proliferation … of inhibitor” for short) was “significantly reduced lymphocyte reactivity” and the “lymphocyte proliferation to Ni combined with inhibitor compared to media control” value is recorded as “significant increases in cell proliferation”. The “IL-17A/F production to metal challenge in the presence of inhibitor” value (“IL-17A/F production … of inhibitor” below) with IL-17A/F [5] is “significantly suppressed”. Moreover, in the series with IFN-γ [6], the “IFN-γ production to metal challenge in the presence of inhibitor” value was “significantly suppressed both IL-17 and IFN-γ production”.
Turning to `CC(C)(O)c1coc(S(=O)(=O)NC(=O)Nc2c3c(cc4c2CCC4)CCC3)c1` [MCC950, reference compound], in series [4], the “lymphocyte proliferation … of inhibitor” value is given as “only a weak proliferative response” and the “lymphocyte proliferation to Ni combined with inhibitor compared to media control” value was “significant increases in cell proliferation”. Also, in the series on IL-17A/F [5], the “IL-17A/F production … of inhibitor” value is “significantly suppressed”. The “IFN-γ production to metal challenge in the presence of inhibitor” value in the series on IFN-γ [6] was “not affected”.
For the compound “IL-1Ra: recombinant human IL-1Ra (R&D Systems), IL-1 receptor antagonist; b178 equates IL-1Ra with ANAKINRA”, in series [4] (comparison of MCC950, Caspase-1 inhibitor, IL-1Ra, anti-IL-17A), the “relative effectiveness in mitigating lymphocyte metal reactivity (comparison among inhibitors)” value was “most effective inflammasome based inhibitor”. Further, in series [4], the “lymphocyte proliferation … of inhibitor” value is reported as “significantly reduced lymphocyte proliferative responses” and the “lymphocyte proliferation to Ni combined with inhibitor compared to media control” value is listed as “non-significantly different compared to media challenge”. For the same compound, in the series with IL-17A/F [5], the “IL-17A/F production … of inhibitor” value is given as “significantly suppressed”.

(Values after patent US11352421B2, “Treatment for adverse immune reaction to metal implant debris” (RUSH UNIVERSITY MEDICAL CENTER, priority 2018, dated 2022).)
